“And” between values parts separate entries of the source, which are not always exact repeats. Equal entries are not always repeated. Where two headings read alike, the source gives them in different places.
Legend:
hCA XII = molecular target: T1, hCA XII (Homo sapiens, UniProt O43570); assay: biochemical
T1 construct: made in house
Procedure: (§1) For this reason, we herein report a 6 h incubation time instead.
(§2) An Applied Photophysics stopped-flow instrument was used for assaying the CA catalyzed CO2 hydration activity. […] The uncatalyzed rates were determined in the same manner and subtracted from the total observed rates. Stock solutions of inhibitor (0.1 mM) were prepared in distilled–deionized water and dilutions up to 0.01 nM were done thereafter with the assay buffer. Inhibitor and enzyme solutions were preincubated together for 6h at room temperature prior to assay, in order to allow for the formation of the E-I complex. The inhibition constants were obtained by non-linear least-squares methods using PRISM 3 and the Cheng–Prusoff equation and represent the mean from at least three different determinations. […] All CA isoforms were recombinant ones obtained in-house.

hCA IX = molecular target: T2, hCA IX (Homo sapiens, UniProt Q16790); assay: stopped-flow CO2 hydrase assay, hCA IX inhibition; format: biochemical; conditions: 6 h incubation of enzyme and inhibitor; mean from 3 different assays, errors 5-10%; read-out: KI (nM) CA IX
T2 construct: made in house
Procedure: as §1, §2

hCA I = molecular target: T3, hCA I (Homo sapiens, UniProt P00915); assay: stopped-flow CO2 hydrase assay, hCA I inhibition; format: biochemical; conditions: 6 h incubation of enzyme and inhibitor; mean from 3 different assays, errors 5-10%; read-out: KI (nM) CA I
T3 construct: made in house
Procedure: as §1, §2

hCA II = molecular target: T4, hCA II (Homo sapiens, UniProt P00918); assay: stopped-flow CO2 hydrase assay, hCA II inhibition; format: biochemical; conditions: 6 h incubation of enzyme and inhibitor; mean from 3 different assays, errors 5-10%; read-out: KI (nM) CA II
T4 construct: made in house
Procedure: as §1, §2

[1] = 6 h incubation of enzyme and inhibitor, mean from 3 different assays, errors 5-10%, read-out: KI (nM) CA XII

T1 sequence (O43570 25-354): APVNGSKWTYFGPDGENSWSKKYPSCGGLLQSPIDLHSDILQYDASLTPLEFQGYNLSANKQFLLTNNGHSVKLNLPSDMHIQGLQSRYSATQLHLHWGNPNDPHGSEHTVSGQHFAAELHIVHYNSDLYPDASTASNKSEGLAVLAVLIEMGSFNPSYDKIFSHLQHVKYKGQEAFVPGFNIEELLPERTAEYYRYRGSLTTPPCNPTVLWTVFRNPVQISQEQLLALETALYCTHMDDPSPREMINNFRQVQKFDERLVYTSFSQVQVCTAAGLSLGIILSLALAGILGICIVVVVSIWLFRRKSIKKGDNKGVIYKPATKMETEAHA
T3 sequence (P00915 whole entry): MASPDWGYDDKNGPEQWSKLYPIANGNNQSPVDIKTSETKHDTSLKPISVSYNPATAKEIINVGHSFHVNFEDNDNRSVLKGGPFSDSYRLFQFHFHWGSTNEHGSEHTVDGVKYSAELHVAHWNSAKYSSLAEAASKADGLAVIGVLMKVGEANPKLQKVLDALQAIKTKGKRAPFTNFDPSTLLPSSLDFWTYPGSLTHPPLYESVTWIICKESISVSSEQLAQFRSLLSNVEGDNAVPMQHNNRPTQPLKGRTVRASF

SMILES	melting point	Ki (hCA XII; [1])	Ki (hCA IX)	Ki (hCA I)	Ki (hCA II)	Ki (hCA XII)
COc1ccc2c(c1)OS(=O)(=O)C=C2 [Compound 9, 7-Methoxybenzo[e][1,2]oxathiine 2,2-dioxide]	111 to 112 °C	61.4 nM	74.9 nM	> 100000 nM		
COc1ccc2c(c1)OS(=O)(=O)C=C2C [Compound 10, 7-Methoxy-4-methylbenzo[e][1,2]oxathiine 2,2-dioxide]	151 to 153 °C	73.9 nM	97.2 nM	> 100000 nM	8810 nM	
O=S1(=O)C=Cc2ccc(O)cc2O1 [Compound 11, 7-Hydroxybenzo[e][1,2]oxathiine 2,2-dioxide]	157 to 159 °C	42.5 nM	55.8 nM	16500 nM		
CC1=CS(=O)(=O)Oc2cc(O)ccc21 [Compound 12, 7-Hydroxy-4-methylbenzo[e][1,2]oxathiine 2,2-dioxide]	172 to 175 °C	55 nM	81.7 nM	9960 nM	3860 nM	
O=S1(=O)C=Cc2ccc(OCc3ccccc3)cc2O1 [Compound 13, 7-(Benzyloxy)benzo[e][1,2]oxathiine 2,2-dioxide]	165 to 167 °C	28.3 nM	55.6 nM	> 100000 nM		
O=S1(=O)C=Cc2ccc(OCc3ccc(F)cc3)cc2O1 [Compound 14, 7-((4-Fluorobenzyl)oxy)benzo[e][1,2]oxathiine 2,2-dioxide]	197 to 199 °C	19.2 nM	22.9 nM	> 100000 nM	> 100000 nM	
O=S1(=O)C=Cc2ccc(OCc3cccc(F)c3)cc2O1 [Compound 15, 7-((3-Fluorobenzyl)oxy)benzo[e][1,2]oxathiine 2,2-dioxide]	180 to 183 °C	46 nM	28.4 nM	> 100000 nM	> 100000 nM	
O=[N+]([O-])c1ccc(COc2ccc3c(c2)OS(=O)(=O)C=C3)cc1 [Compound 16, 7-((4-Nitrobenzyl)oxy)benzo[e][1,2]oxathiine 2,2-dioxide]	215 to 217 °C	94.7 nM	68.9 nM and 69.8 nM	> 100000 nM	> 100000 nM	
O=[N+]([O-])c1cccc(COc2ccc3c(c2)OS(=O)(=O)C=C3)c1 [Compound 17, 7-((3-nitrobenzyl)oxy)benzo[e][1,2]oxathiine 2,2-dioxide]	200 to 202 °C	77.5 nM	40.2 nM	> 100000 nM	> 100000 nM	
CC1=CS(=O)(=O)Oc2cc(OCc3ccccc3)ccc21 [Compound 18, 7-(benzyloxy)-4-methylbenzo[e][1,2]oxathiine 2,2-dioxide]	174 to 175 °C	8.6 nM	49.8 nM	> 100000 nM	> 100000 nM	
CC1=CS(=O)(=O)Oc2cc(OCc3ccc(F)cc3)ccc21 [Compound 19, 7-((4-fluorobenzyl)oxy)-4-methylbenzo[e][1,2]oxathiine 2,2-dioxide]	195 to 198 °C	41.7 nM	14.3 nM	> 100000 nM	> 100000 nM	
CC1=CS(=O)(=O)Oc2cc(OCc3cccc(F)c3)ccc21 [Compound 20, 7-((3-fluorobenzyl)oxy)-4-methylbenzo[e][1,2]oxathiine 2,2-dioxide]	214 to 215 °C	25.7 nM	33.2 nM	> 100000 nM	> 100000 nM	
CC1=CS(=O)(=O)Oc2cc(OCc3ccc([N+](=O)[O-])cc3)ccc21 [Compound 21, 7-((4-nitrobenzyl)oxy)-4-methylbenzo[e][1,2]oxathiine 2,2-dioxide]	247 to 249 °C	101 nM	89.7 nM	> 100000 nM	> 100000 nM	
CC1=CS(=O)(=O)Oc2cc(OCc3cccc([N+](=O)[O-])c3)ccc21 [Compound 22, 7-((3-nitrobenzyl)oxy)-4-methylbenzo[e][1,2]oxathiine 2,2-dioxide]	239 to 241 °C	136 nM	61.4 nM	> 100000 nM	> 100000 nM	
COc1ccc2c(c1)OS(=O)(=O)c1ccccc1-2 [Compound 25, 3-methoxydibenzo[c,e][1,2]oxathiine 6,6-dioxide]	180 to 183 °C	966 nM	1290 nM	> 100000 nM	> 100000 nM	
O=S1(=O)Oc2cc(O)ccc2-c2ccccc21 [Compound 26, 3-Hydroxydibenzo[c,e][1,2]oxathiine 6,6-dioxide]	181 to 182 °C	414 nM	559 nM	42600 nM	9000 nM	

Now from value to compound:

melting point	Ki (hCA XII; [1])	Ki (hCA IX)	Ki (hCA I)	Ki (hCA II)	Ki (hCA XII)	SMILES
232 to 235 °C	911 nM	681 nM	> 100000 nM	> 100000 nM		O=S1(=O)Oc2cc(OCc3ccccc3)ccc2-c2ccccc21 [Compound 27, 3-(benzyloxy)dibenzo[c,e][1,2]oxathiine 6,6-dioxide]
268 to 269 °C	654 nM	755 nM	> 100000 nM	> 100000 nM		O=S1(=O)Oc2cc(OCc3ccc(F)cc3)ccc2-c2ccccc21 [Compound 28, 3-((4-fluorobenzyl)oxy)dibenzo[c,e][1,2]oxathiine 6,6-dioxide]
249 to 252 °C	566 nM	615 nM	> 100000 nM	> 100000 nM		O=S1(=O)Oc2cc(OCc3cccc(F)c3)ccc2-c2ccccc21 [Compound 29, 3-((3-fluorobenzyl)oxy)dibenzo[c,e][1,2]oxathiine 6,6-dioxide]
264 to 266 °C	1060 nM	965 nM	> 100000 nM	> 100000 nM		O=[N+]([O-])c1ccc(COc2ccc3c(c2)OS(=O)(=O)c2ccccc2-3)cc1 [Compound 30, 3-((4-nitrobenzyl)oxy)dibenzo[c,e][1,2]oxathiine 6,6-dioxide]
248 to 251 °C	1370 nM	898 nM	> 100000 nM	> 100000 nM		O=[N+]([O-])c1cccc(COc2ccc3c(c2)OS(=O)(=O)c2ccccc2-3)c1 [Compound 31, 3-((3-nitrobenzyl)oxy)dibenzo[c,e][1,2]oxathiine 6,6-dioxide]
111 to 113 °C		1630 nM	> 100000 nM	> 100000 nM	2590 nM	CCOC(=O)C1=Cc2ccccc2OS1(=O)=O [Compound 34, ethyl benzo[e][1,2]oxathiine-3-carboxylate 2,2-dioxide]
167 to 169 °C		1080 nM	> 100000 nM	> 100000 nM	1530 nM	CCOC(=O)C1=Cc2ccc(OC)cc2OS1(=O)=O [Compound 35, ethyl 7-methoxybenzo[e][1,2]oxathiine-3-carboxylate 2,2-dioxide]
105 to 107 °C		500 nM	4620 nM	996 nM	564 nM	O=C(O)C1=Cc2ccccc2OS1(=O)=O [Compound 36, benzo[e][1,2]oxathiine-3-carboxylic acid 2,2-dioxide]
150 to 151 °C		854 nM	7140 nM	728 nM	408 nM	COc1ccc2c(c1)OS(=O)(=O)C(C(=O)O)=C2 [Compound 37, 7-methoxybenzo[e][1,2]oxathiine-3-carboxylic acid 2,2-dioxide]
192 to 195 °C		3290 nM	> 100000 nM	> 100000 nM	2300 nM	O=C(Nc1ccccc1)C1=Cc2ccccc2OS1(=O)=O [Compound 38, N-phenylbenzo[e][1,2]oxathiine-3-carboxamide 2,2-dioxide]
249 to 252 °C		34300 nM	> 100000 nM	> 100000 nM	59000 nM	O=C(Nc1ccc(Br)cc1)C1=Cc2ccccc2OS1(=O)=O [Compound 39, N-(4-bromophenyl)benzo[e][1,2]oxathiine-3-carboxamide 2,2-dioxide]
228 to 229 °C		40800 nM	> 100000 nM	> 100000 nM	78300 nM	O=C(Nc1cccc(Br)c1)C1=Cc2ccccc2OS1(=O)=O [Compound 40, N-(3-bromophenyl)benzo[e][1,2]oxathiine-3-carboxamide 2,2-dioxide]
231 to 233 °C		8230 nM	> 100000 nM	> 100000 nM	8550 nM	COc1ccc(NC(=O)C2=Cc3ccccc3OS2(=O)=O)cc1 [Compound 41, N-(4-methoxyphenyl)benzo[e][1,2]oxathiine-3-carboxamide 2,2-dioxide]
219 to 221 °C		5420 nM	> 100000 nM	> 100000 nM	3380 nM	COc1cccc(NC(=O)C2=Cc3ccccc3OS2(=O)=O)c1 [Compound 42, N-(3-methoxyphenyl)benzo[e][1,2]oxathiine-3-carboxamide 2,2-dioxide]
